We go through eleven molecules from paper PMC5846083 (Journal of Medicinal Chemistry, 2018).

The target of one data set is Na,K-ATPase α4 (Rattus norvegicus, UniProt Q64541). Description: Inhibition of Na,K-ATPase α4 activity. The data set is classed as biochemical. Conditions: for reduced activity compared to ouabain: Na,K-ATPase α4 inhibition; for loss of Na,K-ATPase α4 inhibitory activity versus comparator: 29 versus 32, 19 versus 25; for IC50 for Na,K-ATPase α4 inhibition (Figure 1): recombinant rat α4, mean of two experiments in quadruplicate.
Na,K-ATPase α4, sequence (Q64541 whole entry, other chains not shown): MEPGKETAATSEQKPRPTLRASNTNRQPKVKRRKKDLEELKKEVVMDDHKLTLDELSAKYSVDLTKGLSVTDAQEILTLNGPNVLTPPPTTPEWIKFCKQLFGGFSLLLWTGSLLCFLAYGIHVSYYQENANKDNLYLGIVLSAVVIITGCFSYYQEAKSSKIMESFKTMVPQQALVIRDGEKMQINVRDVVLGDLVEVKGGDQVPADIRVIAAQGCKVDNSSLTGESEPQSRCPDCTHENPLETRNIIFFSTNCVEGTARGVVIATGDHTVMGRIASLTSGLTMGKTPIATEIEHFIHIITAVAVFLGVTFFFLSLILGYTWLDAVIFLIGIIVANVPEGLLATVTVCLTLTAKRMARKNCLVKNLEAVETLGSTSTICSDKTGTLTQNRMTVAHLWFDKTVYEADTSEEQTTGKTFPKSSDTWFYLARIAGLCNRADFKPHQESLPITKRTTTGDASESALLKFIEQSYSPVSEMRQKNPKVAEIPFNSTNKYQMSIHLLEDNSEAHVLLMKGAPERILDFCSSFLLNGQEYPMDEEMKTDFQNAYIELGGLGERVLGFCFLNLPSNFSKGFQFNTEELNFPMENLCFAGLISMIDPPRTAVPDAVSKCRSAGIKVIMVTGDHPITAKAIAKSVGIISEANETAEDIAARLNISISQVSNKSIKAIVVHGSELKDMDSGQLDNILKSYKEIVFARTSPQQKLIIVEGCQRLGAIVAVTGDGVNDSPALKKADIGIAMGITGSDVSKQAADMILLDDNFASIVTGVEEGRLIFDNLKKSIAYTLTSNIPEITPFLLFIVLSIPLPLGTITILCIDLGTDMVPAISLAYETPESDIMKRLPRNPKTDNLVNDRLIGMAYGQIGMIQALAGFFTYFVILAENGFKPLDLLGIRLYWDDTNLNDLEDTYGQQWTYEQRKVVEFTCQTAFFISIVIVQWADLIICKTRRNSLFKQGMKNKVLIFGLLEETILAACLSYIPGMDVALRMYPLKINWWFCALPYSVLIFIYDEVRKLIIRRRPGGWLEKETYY

The test system of data set [1] is rat sperm. Put plainly: Rat sperm motility in vitro. Conditions: for maximum reduction of sperm motility: even at high concentrations. Type of data set: cell-based.
For another data set, the target named is hERG (Homo sapiens, UniProt Q12809). Description: hERG competitive displacement fluorescence polarization assay. A general note: The hERG channel carries a current that helps repolarise heart muscle cells.
hERG, sequence (Q12809 whole entry): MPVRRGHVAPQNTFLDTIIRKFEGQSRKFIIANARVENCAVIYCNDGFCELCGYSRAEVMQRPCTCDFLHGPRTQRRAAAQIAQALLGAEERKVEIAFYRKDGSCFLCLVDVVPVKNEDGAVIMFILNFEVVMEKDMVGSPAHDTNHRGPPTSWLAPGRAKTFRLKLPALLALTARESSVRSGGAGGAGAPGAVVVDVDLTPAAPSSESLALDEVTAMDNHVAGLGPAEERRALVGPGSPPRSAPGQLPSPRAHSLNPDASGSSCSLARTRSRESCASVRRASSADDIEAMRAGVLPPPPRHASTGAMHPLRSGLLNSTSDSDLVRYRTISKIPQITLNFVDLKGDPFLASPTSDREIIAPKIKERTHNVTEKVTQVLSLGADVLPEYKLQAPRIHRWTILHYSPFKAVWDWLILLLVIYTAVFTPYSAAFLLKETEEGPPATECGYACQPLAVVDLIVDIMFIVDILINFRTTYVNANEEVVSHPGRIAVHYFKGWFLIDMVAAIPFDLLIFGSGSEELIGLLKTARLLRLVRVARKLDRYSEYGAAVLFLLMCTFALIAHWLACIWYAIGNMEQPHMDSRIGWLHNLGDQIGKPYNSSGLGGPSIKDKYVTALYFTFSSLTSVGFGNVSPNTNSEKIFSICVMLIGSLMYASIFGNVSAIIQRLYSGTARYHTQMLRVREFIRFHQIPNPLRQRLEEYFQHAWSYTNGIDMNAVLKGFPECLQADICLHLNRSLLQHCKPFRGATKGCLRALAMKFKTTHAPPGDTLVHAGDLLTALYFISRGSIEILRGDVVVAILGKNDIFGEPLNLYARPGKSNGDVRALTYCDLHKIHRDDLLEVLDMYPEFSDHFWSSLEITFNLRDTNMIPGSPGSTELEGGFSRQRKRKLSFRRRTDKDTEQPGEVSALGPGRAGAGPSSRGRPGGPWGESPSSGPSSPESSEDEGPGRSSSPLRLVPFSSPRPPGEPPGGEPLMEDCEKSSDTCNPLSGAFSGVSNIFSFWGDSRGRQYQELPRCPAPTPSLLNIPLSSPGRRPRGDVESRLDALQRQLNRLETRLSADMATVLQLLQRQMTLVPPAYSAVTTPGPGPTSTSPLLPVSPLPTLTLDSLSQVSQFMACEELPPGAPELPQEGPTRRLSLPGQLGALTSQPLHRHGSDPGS
The subject of data set [2] is rat sperm. Put plainly: Sperm hyperactivated motility under capacitating conditions. To be noted: 10^–8 M, 1 h, capacitating medium.
A short description of data set [3]: General toxicity in treated rats. Type of data set: in vivo, rat. To be noted: oral gavage, 5–20 mg/kg.
For data set [4], the system named is rat sperm. Description: Sperm intracellular Ca2+, Calcium Green. The data set is classed as cell-based. To be noted: 10^–8 M, 1 h.
In data set [5] the test system is rat sperm. Description: Sperm intracellular pH, SNARF-1. Type of data set: cell-based. To be noted: 10^–8 M, 1 h.
In data set [6] the test system is rat sperm. Description: Sperm membrane potential. To be noted: 10^–8 M, 1 h. Type of data set: cell-based.
The next data set relates to human Na,K-ATPase α4. Conditions: human isoforms; cited from earlier work.

As to `C[C@]12C[C@@H](O)[C@H]3[C@@H](CC[C@]4(O)C[C@@H](O)C[C@@H](O)[C@]34CO)[C@@]1(O)CCC2c1cn(Cc2ccc(F)cc2)nn1` (mixture of isomers) [Compound 27, (1R,3S,5S,8R,9S,10R,11R,13R,14S,17S)-17-(1-(4-Fluorobenzyl)-1H-1,2,3-triazol-4-yl)-10-(hydroxymethyl)-13-methyltetradecahydro-5H-cyclopenta[a]phenanthrene-1,3,5,11,14(2H)-pentaol], the IC50 at Na,K-ATPase α4 was found to be 0.03 µM.

`COCO[C@@H]1[C@H]2OC(C)(C)O[C@H]2[C@H](O[C@H]2C[C@H]3OC(C)(C)OC[C@]34[C@@H]3[C@@H](CC[C@]4(O)C2)[C@@]2(O)CC[C@H](CO)[C@@]2(C)C[C@H]3OCOC)O[C@H]1C` [Compound 10, (3S,3aR,5R,5aS,5bR,9aR,11S,12aS,14aR,14bS)-3-(Hydroxymethyl)-5-(methoxymethoxy)-11-(((3aR,4R,6S,7S,7aR)-7-(methoxymethoxy)-2,2,6-trimethyltetrahydro-4H-[1,3]dioxolo[4,5-c]pyran-4-yl)oxy)-3a,8,8-trimethyltetradecahydro-6H-cyclopenta[7,8]phenanthro[4,4a-d][1,3]dioxine-12a,14b-diol]: the “effect on other parameters of sperm movement (progressive motility, velocities, linearity, beat cross frequency)” value (shortened to “effect on other parameters”) with rat sperm [1] (1 h incubation) is “directly block all parameters of sperm movement”. Moreover, the “maximum reduction of sperm motility” value in the data set on rat sperm [1] was 50–60%. This molecule showed an IC50 on hERG of more than 60 µM.

`COCO[C@@H]1[C@H]2OC(C)(C)O[C@H]2[C@H](O[C@H]2C[C@H]3OC(C)(C)OC[C@]34[C@@H]3[C@@H](CC[C@]4(O)C2)[C@@]2(O)CC[C@H](C#N)[C@@]2(C)C[C@H]3OCOC)O[C@H]1C` [Compound 11, (3S,3aR,5R,5aS,5bR,9aR,11S,12aS,14aR,14bS)-12a,14b-Dihydroxy-5-(methoxymethoxy)-11-(((3aR,4R,6S,7S,7aR)-7-(methoxymethoxy)-2,2,6-trimethyltetrahydro-4H-[1,3]dioxolo[4,5-c]pyran-4-yl)oxy)-3a,8,8-trimethylhexadecahydro-6H-cyclopenta[7,8]phenanthro[4,4a-d][1,3]dioxine-3-carbonitrile]: at Na,K-ATPase α4, the “reduced activity compared to ouabain” value was “about 10 fold”.

As for `COCO[C@H]1C[C@H]2OC(C)(C)OC[C@]23[C@@H]2[C@@H](CC[C@]3(O)C1)[C@@]1(OCOC)CC[C@H](CO)[C@@]1(C)C[C@H]2OCOC` [Compound 17, (3S,3aR,5R,5aS,5bR,9aR,11S,12aS,14aR,14bS)-3-(Hydroxymethyl)-5,11,14b-tris(methoxymethoxy)-3a,8,8-trimethyltetradecahydro-6H-cyclopenta[7,8]phenanthro[4,4a-d][1,3]dioxin-12a(1H)-ol], the “effect on other parameters” value in the data set with rat sperm [1] (1 h incubation) is on record as “directly block all parameters of sperm movement”. Further, the “maximum reduction of sperm motility” value in the data set with rat sperm [1] is reported as 50–60%. This molecule showed an IC50 on hERG of more than 60 µM.

For `COc1ccc(-c2cn(C[C@H]3CC[C@]4(O)[C@@H]5CC[C@]6(O)C[C@@H](O)C[C@@H](O)[C@]6(CO)[C@H]5[C@H](O)C[C@]34C)nn2)cc1` [Compound 19, (1R,3S,5S,8R,9S,10R,11R,13R,14S,17S)-10-(Hydroxymethyl)-17-((4-(4-methoxyphenyl)-1H-1,2,3-triazol-1-yl)methyl)-13-methyltetradecahydro-5H-cyclopenta[a]phenanthrene-1,3,5,11,14(2H)-pentaol], the “loss of Na,K-ATPase α4 inhibitory activity versus comparator” value at Na,K-ATPase α4 is 7 orders of magnitude.

Regarding `C[C@]12C[C@@H](O)[C@H]3[C@@H](CC[C@]4(O)C[C@@H](O)C[C@@H](O)[C@]34CO)[C@@]1(O)CC[C@@H]2c1cn(Cc2ccccc2)nn1` [Compound 25, (1R,3S,5S,8R,9S,10R,11R,13R,14S,17S)-17-(1-Benzyl-1H-1,2,3-triazol-4-yl)-10-(hydroxymethyl)-13-methyltetradecahydro-5H-cyclopenta[a]phenanthrene-1,3,5,11,14(2H)-pentaol], in the data set on rat sperm [2], the “reduction of hyperactivation accompanying sperm capacitation” value is “approximately 70%”. Further, the “toxic effect on treated rats” value in data set [3] is “did not exert any major toxic effect”. Moreover, the “decrease of total sperm motility” value in the data set with rat sperm [1] (10^–8 M and higher, 1 h incubation) is listed as “approximately 60%”. Besides, the “effect on other parameters” value in the data set with rat sperm [1] (1 h incubation) is on record as “directly block all parameters of sperm movement”. Further, in the data set with rat sperm [1], the “maximum reduction of sperm motility” value is 50–60%. At hERG, the half-inhibitory concentration (IC50) is more than 60 µM. For the same molecule, the “increase of [Ca2+]i in sperm” value in the data set on rat sperm [4] was “approximately 40%”. In addition, in the data set with rat sperm [5], the “effect on sperm intracellular pH” value is given as “caused intracellular sperm acidification”. Moreover, in the data set on rat sperm [6], the “increase of sperm Vm (plasma membrane depolarization)” value is given as “approximately 40%”.

Turning to `COCO[C@H]1C[C@H]2OC(C)(C)OC[C@]23[C@@H]2[C@@H](CC[C@]3(O)C1)[C@@]1(OCOC)CC[C@H](C#N)[C@@]1(C)C[C@H]2OCOC` [Compound 29, (3S,3aR,5R,5aS,5bR,9aR,11S,12aS,14aR,14bS)-12a-Hydroxy-5,11,14b-tris(methoxymethoxy)-3a,8,8-trimethylhexadecahydro-6H-cyclopenta[7,8]phenanthro[4,4a-d][1,3]dioxine-3-carbonitrile], the “loss of Na,K-ATPase α4 inhibitory activity versus comparator” value on Na,K-ATPase α4 was 3 orders of magnitude.

As to `COCO[C@H]1C[C@H]2OC(C)(C)OC[C@]23[C@@H]2[C@@H](CC[C@]3(O)C1)[C@@]1(OCOC)CC[C@H](C(=O)O)[C@@]1(C)C[C@H]2OCOC` [Compound 32, (3S,3aR,5R,5aS,5bR,9aR,11S,12aS,14aR,14bS)-12a-Hydroxy-5,11,14b-tris(methoxymethoxy)-3a,8,8-trimethylhexadecahydro-6H-cyclopenta[7,8]phenanthro[4,4a-d][1,3]dioxine-3-carboxylic Acid], at Na,K-ATPase α4, the “reduced activity compared to ouabain” value is “about 10 fold”.

Take `CO[C@H]1C[C@H](O[C@H]2CC[C@]3(C=O)[C@H]4CC[C@]5(C)[C@@H](C6=CC(=O)OC6)CC[C@]5(O)[C@@H]4CC[C@]3(O)C2)O[C@H](C)[C@H]1O` [cymarin, reference compound]: the “IC50 for Na,K-ATPase α4 inhibition (Figure 1)” value on Na,K-ATPase α4 is listed as 10^–8 to 10^–9 M.

On to `C[C@@H]1O[C@@H](O[C@H]2C[C@@H](O)[C@]3(CO)[C@H]4[C@H](O)C[C@]5(C)[C@@H](C6=CC(=O)OC6)CC[C@]5(O)[C@@H]4CC[C@]3(O)C2)[C@H](O)[C@H](O)[C@H]1O` [ouabain], for which, in the data set on human Na,K-ATPase α4, the “sensitivity to ouabain, human Na,K-ATPase α4 versus α1” value is listed as approximately 100 fold.

As for `C[C@]12CC[C@H]3[C@@H](CC[C@]4(O)C[C@@H](O)CC[C@]34C=O)[C@@]1(O)CC[C@@H]2C1=CC(=O)OC1` [strophanthidin, reference compound], the “IC50 for Na,K-ATPase α4 inhibition (Figure 1)” value at Na,K-ATPase α4 is 10^–8 to 10^–9 M.

A word on the IC50: it is the concentration needed to halve the response being measured. A higher IC50 goes with lower potency.
